According to patent publication US10174013B2, “Benzimidazole derivatives as kinase inhibitors” (SELVITA S.A., priority 2012, dated 2019):
Like-named read-outs stand apart in the source and are kept apart here.

Key:
[1] = molecular target: Pim-1 (Homo sapiens (Human), UniProt P11309); assay: ADP-Glo Kinase Assay, Pim-1; assay type: biochemical; details: 1 μM compound; for inhibition at 1 µM: read-out: Pim-1 % INH (1 μM)
Protocol: (§1) Compounds of the present invention were tested for their inhibitory activity against Pim-1, Pim-2, Pim-3, Flt3 wt, Flt3 ITD, CDK2/E and DYRK1. The testing of the compounds was carried out using the ADP-Glo™ Kinase Assay from Promega Corporation (Madison, Wis., USA).
(§2) The ADP-Glo™ Kinase Assay is a luminescent ADP detection assay to measure kinase activity by quantifying the amount of ADP produced during a kinase reaction. The kinase assay is performed in kinase assay buffer (5 mM MOPS, pH 7.5, 5 mM MgCl2, 0.4 mM EDTA, 1.5 mM DTT). Test samples initially dissolved in DMSO at 10 mM were diluted with the assay buffer to 1000 nM. A 30 μL volume/well of a mixture of substrates containing ATP (final ATP concentration in each kinase assay was equal to its apparent ATP Km).
(§3) The assay was performed in two steps: first, after the kinase reaction, an equal volume of ADP-Glo™ Reagent was added to terminate the kinase reaction and deplete the remaining ATP. Second, the Kinase Detection Reagent was added to simultaneously convert ADP to ATP and allowed the newly synthesized ATP to be measured using a luciferase/luciferin reaction. The luminescent signal generated was proportional to the ADP concentration produced and was correlated with kinase activity. A microplate spectrophotometer (Synergy 2 multi-mode microplate reader [BioTek]) was used for detecting the luminescence. The data was normalized and the percent of inhibition was obtained according to the following equation: […]

[2] = tested on: HEL92 cells; assay: Growth inhibition, MTS assay, HEL92; assay type: cell-based, Human; details: MTS cell viability, read-out: HEL92 ED50
From the text: (§4) The following cell lines, were obtained and used in tests as outlined below: • Human myelomonocytic, biphenotypic leukemia MV4-11 cells (harboring a Flt3-ITD mutation); • Human Acute Myeloid Leukemia MOLM16 cells; • Human Acute Myeloid Leukemia MOLM13 cells (harboring a Flt3-ITD mutation); • Human Myeloid Leukemia KG-1 cells; • Human erythroleukemia HEL92 cells; • Human mantle cell lymphoma Jeko-1 cells; • Human hepatocellular carcinoma HepG2 cells; and • Human colon adenocarcinoma SW-480 cells.
(§5) The assays were carried out according to the following protocol, which is described as an example for the MV4-11 cells:
(§6) Ten thousand MV4-11 cells were inoculated into each well of a 96-well microplate (manufactured by Corning Corp.) using Iscove's MDM medium (culture medium) containing 10% fetal calf serum (FCS). The same day, a dimethyl sulfoxide (DMSO) solution of each test compound prepared in a concentration of 10 mmol/L was further diluted with DMSO to the desired concentrations (0.1, 0.5, 1, 2.5, 5 and 10 micromol/L), and the diluted solution was added to each well. The individual wells were further cultured in 5% carbon dioxide at 37° C. for 72 hours. […] Briefly, 10 μl MTS (3-(4,5-Dimethyl-2-thiazolyl)-5-(carboxymethoxyphenyl)-2-(4-sulfophenyl)-2H-tetrazolium was added to each well, and culturing was performed in 5% carbon dioxide at 37° C. for 2 hours. After this incubation and using a microplate spectrophotometer (Synergy 2 multi-mode microplate reader (BioTek)), the absorbance of each well was measured at 490 nm. The value for cells not incubated with a test compound was designated as 100%. By comparing these values with the absorbance difference obtained at the well in which each test compound was added, the cell viability (% viability) after treatment with the test compound was calculated.

[3] = tested on: HepG2 cells; assay: Growth inhibition, MTS assay, HepG2; assay type: cell-based, Human; details: MTS cell viability, read-out: HepG2 ED50
From the text: as §4, §5, §6

[4] = molecular target: DYRK1 (Homo sapiens (Human), UniProt Q13627); assay: ADP-Glo Kinase Assay, DYRK1; assay type: biochemical; details: 1 μM compound; for inhibition at 1 µM: read-out: DYRK1A % INH (1 μM)
Protocol: as §1, §2, §3

[5] = tested on: MV4-11 cells; assay: Growth inhibition, MTS assay, MV4-11; assay type: cell-based, Human; details: MTS cell viability, read-out: MV4-11 ED50
From the text: as §4, §5, §6

[6] = molecular target: FLT3wt (Homo sapiens (Human), UniProt P36888); assay: ADP-Glo Kinase Assay, Flt3 wt; assay type: biochemical; details: 1 μM compound; for inhibition at 1 µM: read-out: Flt3wt % INH (1 μM)
Sequence of FLT3wt (P36888 27-993): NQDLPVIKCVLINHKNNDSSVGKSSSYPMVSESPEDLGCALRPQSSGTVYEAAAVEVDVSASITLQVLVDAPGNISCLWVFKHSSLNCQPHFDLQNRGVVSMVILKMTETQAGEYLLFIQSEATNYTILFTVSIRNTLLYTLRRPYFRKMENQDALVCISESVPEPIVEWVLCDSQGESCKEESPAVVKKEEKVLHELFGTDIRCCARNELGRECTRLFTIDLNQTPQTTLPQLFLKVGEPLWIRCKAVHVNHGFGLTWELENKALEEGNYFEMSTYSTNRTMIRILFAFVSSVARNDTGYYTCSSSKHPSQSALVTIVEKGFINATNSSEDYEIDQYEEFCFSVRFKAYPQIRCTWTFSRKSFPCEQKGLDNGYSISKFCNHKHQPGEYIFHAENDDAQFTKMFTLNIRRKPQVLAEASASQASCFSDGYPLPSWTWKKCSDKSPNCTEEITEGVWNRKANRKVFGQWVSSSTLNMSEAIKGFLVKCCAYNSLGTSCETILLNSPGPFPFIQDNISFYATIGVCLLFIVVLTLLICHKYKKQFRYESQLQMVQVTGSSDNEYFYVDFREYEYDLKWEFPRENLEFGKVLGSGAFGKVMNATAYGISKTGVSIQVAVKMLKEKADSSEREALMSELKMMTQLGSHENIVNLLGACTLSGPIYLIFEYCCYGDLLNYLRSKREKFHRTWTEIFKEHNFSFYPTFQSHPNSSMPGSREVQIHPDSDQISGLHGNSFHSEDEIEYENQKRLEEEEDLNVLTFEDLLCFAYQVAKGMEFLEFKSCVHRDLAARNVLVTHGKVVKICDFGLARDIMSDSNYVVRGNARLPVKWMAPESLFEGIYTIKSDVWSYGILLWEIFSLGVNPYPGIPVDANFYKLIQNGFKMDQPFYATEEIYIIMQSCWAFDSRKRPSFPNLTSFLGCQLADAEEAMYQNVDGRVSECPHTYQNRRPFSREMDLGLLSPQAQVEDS
Protocol: as §1, §2, §3

[7] = molecular target: CDK2/E (Homo sapiens (Human), UniProt P24941); assay: ADP-Glo Kinase Assay, CDK2/E; assay type: biochemical; details: 1 μM compound
Protocol: as §1, §2, §3

Sequence of Pim-1 (P11309 whole entry): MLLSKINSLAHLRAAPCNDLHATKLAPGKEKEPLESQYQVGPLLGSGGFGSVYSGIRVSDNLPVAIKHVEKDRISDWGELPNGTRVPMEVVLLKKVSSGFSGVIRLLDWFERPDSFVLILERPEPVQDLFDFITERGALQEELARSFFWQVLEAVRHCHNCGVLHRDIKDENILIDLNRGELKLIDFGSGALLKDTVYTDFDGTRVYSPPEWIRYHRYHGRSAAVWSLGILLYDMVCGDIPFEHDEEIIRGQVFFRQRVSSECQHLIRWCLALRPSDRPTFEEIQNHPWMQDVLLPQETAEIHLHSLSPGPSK

| inhibition at 1 µM [1] [%] | Pim-1 % INH (1 μM) [1] [%] | IC50 ([3]; 72 hours) [µM] | IC50 ([5]; 72 hours) [µM] | DYRK1A % INH (1 μM) [4] [%] | Compound | IC50 ([2]; 72 hours) [µM] | further results |
| --- | --- | --- | --- | --- | --- | --- | --- |
| > 95 |  |  |  |  | CCn1c(N2CCNC[C@@H]2C)nc2c(C#N)c(Br)c(Br)cc21 [Example 1DP] |  | IC50 ([2]; Homo sapiens, 72 h): 0.5 µM; IC50 ([3]; Homo sapiens, HepG2, 72 h): 0.2 µM; inhibition at 1 µM [4]: > 95%; IC50 ([5]; Homo sapiens, MV4-11, 72 h): 0.1 µM; inhibition at 1 µM [6]: 57% |
|  | >95 | 2.8 | 2.1 |  | CC(C)n1c(N2CC[C@@H](N)C2)nc2c([N+](=O)[O-])c(Br)c(F)cc21 [Example 1CY] | 8.9 | Flt3wt % INH (1 μM) [6]: <5% |
|  | >95 | 1.2 | 0.6 | 44 | CC(C)n1c(N2CCC(N)CC2)nc2c([N+](=O)[O-])c(Br)c(Br)cc21 [Example 1CP] | 5.8 | CDK2/E % INH (1 μM) [7]: 39%; Flt3wt % INH (1 μM) [6]: 32% |
| > 95 |  |  |  |  | COC1CN(c2nc3c([N+](=O)[O-])c(Br)c(Br)cc3n2C(C)C)CC1N (stereo not drawn) [Example 1EB] |  |  |
|  | >95 | 2.6 | 0.8 | 95 | CCCn1c(N2CC[C@@H](N)C2)nc2c([N+](=O)[O-])c(Br)c(Br)cc21 [Example 1CM] | 5.2 | Flt3wt % INH (1 μM) [6]: 26% |
|  | >95 | 5.3 | 2.0 | 23 | Cl.N[C@H]1CCN(c2nc3c([N+](=O)[O-])c(Br)c(Br)cc3n2CC2CC2)C1 [Example 1CK] | 6.9 | CDK2/E % INH (1 μM) [7]: 24%; Flt3wt % INH (1 μM) [6]: 30% |
| 56 |  |  |  |  | O=[N+]([O-])c1c(Br)c(Br)cc2c1nc(C1CCNCC1)n2CC1CCNCC1 [Example 27A, 5,6-dibromo-4-nitro-2-(piperidin-4-yl)-1-(piperidin-4-ylmethyl)-1H-1,3-benzodiazole] |  |  |
| > 95 |  |  |  |  | CC(C)n1c(N2CC(N)C2)nc2c([N+](=O)[O-])c(Br)c(Br)cc21 [Example 1CX] |  | IC50 ([2]; Homo sapiens, 72 h): 4.1 µM; IC50 ([3]; Homo sapiens, HepG2, 72 h): 3.1 µM; inhibition at 1 µM [4]: 73%; IC50 ([5]; Homo sapiens, MV4-11, 72 h): 1.2 µM; inhibition at 1 µM [6]: 44% |
| 81 |  |  |  |  | Cc1c(Br)cc2c(nc(N3CCNCC3)n2C(C)C)c1[N+](=O)[O-] [Example 4A, 5-methyl-6-bromo-4-nitro-2-(piperazin-1-yl)-1-(propan-2-yl)-1H-1,3-benzodiazole] |  | IC50 ([2]; Homo sapiens, 72 h): 8.7 µM; IC50 ([5]; Homo sapiens, MV4-11, 72 h): 1 µM |
| 95 |  |  |  |  | O=[N+]([O-])c1c(Br)c(Br)cc2c1nc(N1CCNCC1)n2CCO [Example 1DJ] |  | IC50 ([2]; Homo sapiens, 72 h): 6.7 µM; IC50 ([3]; Homo sapiens, HepG2, 72 h): 2.1 µM; inhibition at 1 µM [4]: > 95%; IC50 ([5]; Homo sapiens, MV4-11, 72 h): 0.6 µM |
|  | >95 | 1.9 | 1.1 | 70 | CC(C)n1c(NC2CNC2)nc2c([N+](=O)[O-])c(Br)c(Br)cc21 [Example 1CR] | 8.7 | Flt3wt % INH (1 μM) [6]: 44% |
|  | 82 | 1.5 | 1.0 | 45 | CC(C)n1c(N2CCNCC2)nc2c([N+](=O)[O-])c(Br)c(F)cc21 [Example 1CL] | 2.4 |  |
|  | >95 | 5.7 | 5.5 | 25 | CC(C)n1c(NC2CCNCC2)nc2c([N+](=O)[O-])c(Br)c(Br)cc21 [Example 1DK] | 5.8 |  |
| > 95 |  |  |  |  | CC(C)n1c(N2CCNC(CO)C2)nc2c([N+](=O)[O-])c(Br)c(Br)cc21 (stereo not drawn) [Example 22AD, {4-[5,6-dibromo-4-nitro-1-(propan-2-yl)-1H-1,3-benzodiazol-2-yl]piperazin-2-yl}methanol] |  | IC50 ([2]; Homo sapiens, 72 h): 6.2 µM; IC50 ([3]; Homo sapiens, HepG2, 72 h): 1.2 µM; inhibition at 1 µM [4]: 31%; IC50 ([5]; Homo sapiens, MV4-11, 72 h): 0.7 µM |
| > 95 |  |  |  |  | CC[C@H]1CNCCN1c1nc2c([N+](=O)[O-])c(Br)c(Br)cc2n1C(C)C [Example 1EA] |  |  |
|  | >95 | 0.4 | 0.2 | 92 | O=[N+]([O-])c1c(Br)c(Br)cc2c1nc(N1CCNCC1)n2C1CCC1 [Example 1DG] | 1.8 |  |
| > 95 |  |  |  |  | N#Cc1c(Br)c(Br)cc2c1nc(N1CC[C@@H](N)C1)n2[C@H]1CCNC1 [Example 8G, 2-[(3R)-3-aminopyrrolidin-1-yl]-5,6-dibromo-1-[(3S)-pyrrolidin-3-yl]-1H-1,3-benzodiazole-4-carbonitrile] |  |  |
|  | >95 | 0.9 | 0.5 | 38 | CC(C)n1c(N2CCNCC2CO)nc2c([N+](=O)[O-])c(Br)c(Br)cc21 (stereo not drawn) [Example 1DN] | 4.5 | Flt3wt % INH (1 μM) [6]: 55% |
|  |  | 5.3 | 5.5 |  | O=[N+]([O-])c1c(Br)c(Br)cc2c1nc(N[C@@H]1CCNC1)n2CC1CC1 [Example 1CJ] | 5.5 |  |
| > 95 |  |  |  |  | CCn1c(N2CCC[C@H](NC)C2)nc2c([N+](=O)[O-])c(Br)c(Br)cc21 [Example 1DZ] |  |  |
|  |  | 2.3 | 2.0 |  | CC(C)n1c(N[C@@H]2CCNC2)nc2c([N+](=O)[O-])c(Br)c(Br)cc21 [Example 1BF] | 7.6 |  |
|  | 91 | 0.9 | 0.5 | 36 | CCn1c(N2CCNCC2C)nc2c([N+](=O)[O-])c(Cl)c(Cl)cc21 (stereo not drawn) [Example 1DA] | 1.1 |  |
|  | 76 | 4.5 | 3.3 | 27 | CCn1c(N2CCNCC2)nc2c([N+](=O)[O-])c(Cl)c(Cl)cc21 [Example 1CN] | 9.4 |  |
|  | 93 | 2.2 | 4.3 |  | CCn1c(NC2CCC(N)CC2)nc2c([N+](=O)[O-])c(Br)c(Br)cc21 (stereo not drawn) [Example 1DO] |  |  |
|  | >95 | 3.7 | 2.0 | 55 | N[C@@H]1CCN(c2nc3c([N+](=O)[O-])c(Br)c(Br)cc3n2CCCO)C1 [Example 1DF] |  | Flt3wt % INH (1 μM) [6]: 18% |
|  | >95 |  | 1.7 | 28 | CC(C)n1c(NC2CCC(N)CC2)nc2c([N+](=O)[O-])c(Br)c(Br)cc21 (stereo not drawn) [Example 1CQ] | 6.0 | CDK2/E % INH (1 μM) [7]: 50%; IC50 ([3]; Homo sapiens, HepG2, 72 h): 2 µM; Flt3wt % INH (1 μM) [6]: 17% |

| Compound | inhibition at 1 µM [1] [%] | Pim-1 % INH (1 μM) [1] [%] | IC50 ([3]; 72 hours) [µM] | IC50 ([5]; 72 hours) [µM] | DYRK1A % INH (1 μM) [4] [%] | IC50 ([2]; 72 hours) [µM] | further results |
| --- | --- | --- | --- | --- | --- | --- | --- |
| CC(C)n1c(N[C@@H]2CCCNC2)nc2c([N+](=O)[O-])c(Br)c(Br)cc21 [Example 1CA] |  | 77 | 1.8 | 2.6 | 64 | 9.7 |  |
| 5-bromo-6-methyl-4-nitro-2-(piperazin-1-yl)-1-(propan-2-yl)-1H-1,3-benzodiazole [Example 4B] |  | >95 | 1.8 | 1.2 | 51 | 4.1 |  |
